Measurements reported in US7189745B1, “Compounds” (SmithKline Beecham Corporation, priority 1999, dated 2007).

Tests used:
activated tie 2 kinase = biological target: T1, activated tie 2 kinase (Homo sapiens, UniProt Q02763); assay: Fluorescence polarization for Tie 2 kinase; assay type: biochemical; conditions: fluorescence polarization assay, 250 uM ATP, 10 uM peptide substrate
T1 construct: a baculovirus expressed GST fusion for Tie2 kinase domain was constructed and expressed using the commercial vector pAcG I (Pharmingen); GST; made in house
Method: 2. Fluorescence Polarization for Tie 2 Kinase
2% DMSO (when screening compounds)
activated tie 2 kinase * see activation protocol below
For a 50 ul reaction add the following to each well of a 96-well black half-area plate (Costar, cat# 3694) • 1.5 ul of compound in 20% DMSO • 5 ul 9× kinase buffer. • 5 ul 2.5 mM ATP. • 5 ul 100 uM peptide substrate. • 25 ul PTK detection mix (Panvera, P-2652, 50 ml—UK distributor is Cambridge Bioscience) • 5 ul activated tie 2 kinase (protocol below) diluted in 1× buffer to initiate the reaction. • 7. Read polarization on an FP instrument cycling for 30–50 minutes in accordance with enzyme activity.
Activation of Tie 2 Kinase Protocol:
• 1. Incubate 5 uM tie 2 kinase in the 300 uM ATP and the buffering conditions described above. • 2. Allow to incubate at 27° C. for 2 hours. • 3. Add 2.5 ml reaction to a NAP-25 desalting column (Pharmacia Biotech cat. no. 17-0852-02) pre-equilibrated in 20 mM Tris-HCl pH 7.5, 100 mM NaCl2 to separate the ATP from the enzyme. • 4. Elute the enzyme with 5.0 ml 20 mM Tris-HCl pH 7.5, 100 mM NaCl2; the protein concentration should be 2.5 uM at this point. • 5. Aliquot out the enzyme and store at −80° C. as soon as possible. B. Measurement of Tie2 Receptor Signal Transduction—a Cellular Assay

Tie2 kinase = biological target: T2, Tie2 kinase (Homo sapiens, UniProt Q02763); assay: Tie2 kinase autophosphorylation flashplate assay; assay type: biochemical; conditions: ATP final 30 uM
T2 construct: a baculovirus expressed GST fusion for Tie2 kinase domain was constructed and expressed using the commercial vector pAcG I (Pharmingen); GST; made in house
Description: A partial cDNA clone for the Tie2 receptor was used to make protein for Tie kinase studies. In order to generate the primary screening assay, a baculovirus expressed GST fusion for Tie2 kinase domain was constructed and expressed using the commercial vector pAcG I (Pharmingen).
This final construct was transfected into Baculovirus and soluble GST fusion products used in the screening assay.
Tie2 kinase activity assay: The Tie2 kinase activity assay was typically run in one of 2 ways described as follows. Minor variations in the assay give similar results.
1. Autophosphorylation flashplate assay
Kinase buffer (final 20 mM Tris-HCl, pH7.0, 100 mM NaCl, 12 mM MgCl2, 1 mM DTT).
Gamma ^33p-ATP (usually final amount of 0.5–1 uCi/well)
ATP (final 30 uM, or other desired concentration)
Flashplate (96-well, polystyrene microplate with plastic scintillator coated wells)
TopCount (microplate scintillation counter)
Turn on incubator shaker and adjust temperature to 30° C.
Add 20 ul of 3× kinase buffer per well to the Flashplate
Add 20 ul of protein per well except for background. Compounds added, typically in DMSO stocks, at 1–2 ul.
Add 20 ul mixture of gamma ^33p-ATP and cold ATP per well.
Cover with transparent polyester film.
Incubate at 30° C. for two hours in shaker, or desired time. […]
Read plate on TopCount or other counting instrument. Results are calculated as % inhibition […]

[1] = system: angiogenesis (vascular density) in air pouch granuloma; assay: Murine air pouch granuloma model of inflammatory angiogenesis; assay type: in vivo, mice; conditions: positive control
Description: Measurement of Angiogenesis In Vivo—Murine Air Pouch Granuloma Model:
The murine airpouch granuloma model of chronic inflammation (Kimura et al., 1985, J. Pharmacobio-Dyn., 8:393–400; Colville-Nash et al., 1995, J. Pharm. and Exp. Ther., 274:1463–1472) whose disclosure is incorporated herein by reference in its entirety, is characterized by inflammatory cell influx, fibrous tissue proliferation and intense angiogenesis. […] In addition, angiogenesis can be accurately quantitated by a vascular casting method.
Day 1, mice are anesthetized using Aerrane (isoflurane) gas (5%) or other approved methods, after which 3 mls of air is injected into the dorsal subcutaneous tissue using a 27 g needle. Mice are allowed to recover. […]
When the granuloma is removed it is weighed and then dried for 3 days at 45° C. and reweighed. […] The carmine content is then determined against a carmine red standard curve (0.5 to 2 mg/ml) generated in extracted tissue from non carmine treated animals and read at 490 nm. Sample and standard values are determined typically using DeltaSoft Elisa analysis software (Biometallics Inc., Princeton, N.J.). […]
The effect of compounds on vascular density was typically measured for 6 days after induction of the granuloma. This time point has been determined to be at or near the peak of angiogenesis. […] Medroxyprogesterone had no effect on granuloma size as measured by dry weight.

T2 sequence (Q02763 824-1096 limits assumed): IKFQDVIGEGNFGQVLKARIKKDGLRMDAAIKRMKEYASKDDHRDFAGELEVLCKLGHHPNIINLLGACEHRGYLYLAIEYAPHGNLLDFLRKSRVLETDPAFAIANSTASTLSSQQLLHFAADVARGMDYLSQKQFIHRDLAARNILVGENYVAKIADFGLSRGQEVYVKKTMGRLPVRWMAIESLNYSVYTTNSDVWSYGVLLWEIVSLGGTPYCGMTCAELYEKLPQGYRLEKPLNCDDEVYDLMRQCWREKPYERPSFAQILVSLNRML
T1 sequence (Q02763 824-1096 limits assumed): as above

Row | IC50 (activated tie 2 kinase) | IC50 (Tie2 kinase) | Compound | maximum reduction (vascular density) ([1]; measured 6 days after induction of the granuloma) | effect on granuloma size as measured by dry weight ([1]; murine air pouch granuloma)
1 | < 1000 nM | < 1000 nM | COc1ccc2cc(-c3nc(C(C)(C)CNC(=O)OC(C)(C)C)[nH]c3-c3ccncc3)ccc2c1 [Example 1, (2-(4-(6-methoxynapthalen-2-yl)-5-pyridin-4-yl-1H-imidazol-2-yl)-2-methyl-propyl)-carbamic acid tert-butyl ester] |  | 
2 |  |  | medroxyprogesterone | 50% | no effect
